This note sets out measurements from patent US8865748B2, “Compounds and compositions for stabilizing hypoxia inducible factor-2 alpha as a method for treating cancer” (Akebia Therapeutics Inc., priority 2011, dated 2014).

The subject of one experiment is sVEGFR-1. The experiment can be described thus: sVEGFR-1 transcription in bone marrow-derived macrophages from LysMcre control and HIF-2α^flox/flox/LysMcre mice. It counts as cell-based. The following applies: FIG. 11F. The text has this: (§1) HIF-2α^flox/flox mice (originally developed by Dr. Celeste Simon, University of Pennsylvania) and LysMcre recombinase mice (originally developed by Irmgard Foerster, University of Duesseldorf) (both purchased from The Jackson Laboratory, Bar Harbor, Me.) were crossed to generate mice homozygous for both LysMcre and the floxed HIF-2α allele. LysMcre recombinase mice, which express no floxed alleles, were used as controls. Deletion of HIF-2α in HIF-2α^flox/flox/LysMcre macrophages, but not the LysMcre control macrophages, was confirmed at the transcript level by real-time PCR.
To generate bone marrow-derived macrophages (BDMs), femoral bone marrow was isolated and progenitor cells were plated in RPMI-1640 supplemented with 10% FBS, 1% PSA, 10 μg/mL of polymyxin B, and 20 ng/mL of recombinant murine M-CSF. Cells were cultured for 5 days with the addition of fresh M-CSF every other day. […]
Human monocytes were left untreated or were stimulated with 100 ng/mL GM-CSF at normoxia or at 0.5% O2. […] Data were analyzed according to the comparative threshold method and normalized against the β-actin internal control transcript. Results are semi-quantitative and represent the fold difference in transcript levels in a particular sample as compared with levels in untreated cells from the same donor. […]

The next experiment relates to VEGF. Kind of experiment: VEGF production by human peripheral blood monocytes (ELISA, real-time PCR). It counts as cell-based. Particulars: FIG. 11C. As to the method: Human peripheral blood mononuclear cells (PBMCs) were isolated from fresh peripheral blood leukocyte source packs (American Red Cross, Columbus Ohio) by density gradient centrifugation over Lymphocyte Separation Medium (Cellgro). Monocytes were purified from total PBMCs by layering over FBS. Monocytes were cultured in endotoxin-free RPMI-1640 supplemented with 1% fetal bovine serum (FBS), 0.1% human serum albumin (HSA), and 10 μg/mL of the endotoxin inhibitor polymyxin B. In some experiments, freshly isolated monocytes were differentiated into macrophages by three-day culture in media containing 10% FBS, 1% PSA (penicillin G sodium, streptomycin sulfate, and amphotericin B), and 20 ng/mL M-CSF. Macrophages were serum-starved for 2 hours prior to stimulation. Monocytes or monocyte-derived macrophages were treated for 24 hours with 10 ng/mL GM-CSF, 10 μM disclosed HIF-2α stabilizer, or an equivalent volume of the vehicle controls (PBS or DMSO, respectively). Cell-free culture supernatants were harvested and analyzed for VEGF or sVEGFR-1 by ELISA (R&D Systems).
Human monocytes were left untreated or were stimulated with 100 ng/mL GM-CSF at normoxia or at 0.5% O2. At various time-points, cells were harvested in Trizol reagent (Invitrogen) and RNA was extracted in chloroform and then purified using the RNeasy Minikit (Qiagen). In murine studies, organs harvested at the time of euthanasia were flash-frozen in liquid nitrogen, pulverized in liquid nitrogen, and then dissolved in Trizol. cDNA was generated from 1 μg of RNA using the Superscript First Strand Synthesis System (Invitrogen) and used for real-time PCR using previously described primers and SYBR Green PCR Master Mix (Applied Biosciences), according to the manufacturer's instructions. Data were analyzed according to the comparative threshold method and normalized against the β-actin internal control transcript. Results are semi-quantitative and represent the fold difference in transcript levels in a particular sample as compared with levels in untreated cells from the same donor.
VEGF protein was undetectable in the supernatants of GM-CSF-stimulated monocytes, due to neutralization of VEGF by sVEGFR-1 (FIG. 11C).
Since monocyte production of VEGF was dependent on HIF-1α, the inventors herein determined whether selective stabilization of HIF-1α via inhibition of PHD2 would increase monocyte production of VEGF but not sVEGFR-1. In order to make such determination, human peripheral blood monocytes were stimulated with GM-CSF in the presence of a selective inhibitor of PHD2 which results in the stabilization of HIF-1α.
On the technique in general: In an ELISA, binding on a coated surface is turned into a signal by an enzyme label.

The subject of the next experiment is tumor growth. The experiment can be described thus: Tumor growth in LysMcre control mice and mice with myeloid-specific deletion of HIF-2α. Format: in vivo. The following applies: FIG. 15.
From the text: as §1
The disclosed HIF-2α stabilizer is not targeted specifically to macrophages, and will stabilize HIF-2α in all tissues, not only the tumor-associated macrophages. In order to determine the role of macrophages in the anti-tumor response to the disclosed HIF-2α stabilizer, mice with a myeloid-specific deletion of HIF-2α (HIF-2α^flox/flox/LysMcre mice) were utilized.

Experiment [1] deals with phosphoglycerate kinase (PGK) mRNA. The experiment can be described thus: Phosphoglycerate kinase (PGK) mRNA expression in wild type murine embryonic fibroblasts (quantitative PCR). It counts as cell-based. The following applies: hypoxic conditions (1% O2); 1, 10 and 100 μM; vs. hypoxia control; FIG. 2A. As to the method:
(§2) Total RNA was isolated from tissues and cells by using TRIzol™ Reagent (Invitrogen) and the RNeasy kit (Qiagen), respectively. 1 μg RNA was used for reverse transcription using SuperScript II First-Strand Synthersis System (Invitrogen). cDNA's were amplified in a SYR Green or TaqMan Universal Master Mix (Applied Biosystems). Quantitative PCR (qPCR) was performed on ABI Prism 7700 sequence detection system. PCR conditions are: 10 min at 95° C., 40 cycles of 15 seconds at 95° C. and 1 minute at 60° C. The relative amount of mRNA was calculated after normalization to β-actin.
(§3) Cells were cultured in DMEM (#11965-092, Invitrogen) supplemented with 10% fetal bovine serum (Invitrogen), 100 U/mL penicillin and […] streptomycin. For glucose deprivation, DMEM without glucose (#11966-025, Invitrogen) was used.
(§4) Mouse embryonic fibroblasts (MEFs) were isolated from E12.5 embryos and immortalized by stable transfection with SV40 large T antigen.

Experiment [2] concerns endothelial cell marker CD31. Kind of experiment: Tumor vascularity by CD31 immunohistochemistry in melanoma-bearing mice. It counts as in vivo. The following applies: mice treated with the control antibody; FIG. 14B; p=0.022.
The next experiment deals with VEGF mRNA. The experiment can be described thus: VEGF mRNA expression in wild type murine embryonic fibroblasts (quantitative PCR). It counts as cell-based. Particulars: hypoxic conditions (1% O2); 1, 10 and 100 μM; vs. hypoxia control; FIG. 1A. As to the method:
as §2, §3, §4

The mark [3] stands for this setting: mice with HIF-2α-deficient macrophages.

Turning to `O=C(O)CNC(=O)c1ncc(-c2cccc(F)c2)cc1O` [disclosed HIF-2α stabilizer, {[5-(3-Fluorophenyl)-3-hydroxypyridine-2-carbonyl]amino}acetic acid], the sVEGFR-1 transcription entry in the experiment with sVEGFR-1 (HIF-2α-deficient macrophages, p=0.881) is “not”; in the experiment with sVEGFR-1 (control macrophages, p=0.036), “induced”. The “VEGF production, transcript levels by real-time PCR” value in the experiment with VEGF (GM-CSF alone vs. GM-CSF and stabilizer, p=0.556) is given as “no difference”. Besides, the “production of VEGF protein (free VEGF ELISA)” value with VEGF (same supernatants as sVEGFR-1, 10 μM stabilizer, p=0.133) was “did not significantly increase”. Also, the tumor growth result in the experiment with tumor growth (LysMcre control mice) is given as “inhibited tumor growth”; in the experiment on tumor growth (setting [3]) it was “reduced tumor growth”. Moreover, the “magnitude of the anti-tumor response relative to control mice” value with tumor growth (setting [3]) is “much less”. For the same compound, in experiment [1], the “PGK mRNA (relative amount)” value is listed as “dramatic reduction”. Besides, the “tumor vascularity (CD31)” value in experiment [2] is listed as “decreased tumor vascularity”. Also, the “VEGF mRNA (relative amount)” value with VEGF mRNA was “dramatic reduction”.
